Experimental data published in patent US20230382915A1, “GCN2 AND PERK KINASE INHIBITORS AND METHODS OF USE THEREOF” (Deciphera Pharmaceuticals, LLC, priority 2021, published 2023).
pIC50: −log10 of the molar value.

Key:
Type in all cases: cell-based
[1] = tested on: H929 Multiple Myeloma cells; assay: Cell proliferation, combination with standard of care, H929; conditions: Homo sapiens, NCI-H929; with 3 nM bortezomib, 96 h, FIG. 6B; read-out: inhibition of cell proliferation IC50, combination treatment
Experimental: H929, RPMI8226, GA-10 and DoHH-2 cells (catalog #CRL-9068) were obtained from the American Type Culture Collection (ATTC, Manassas, VA). H929 Cells were maintained in RPMI-1640 medium supplemented with 20% heat-inactivated fetal bovine serum (catalog #A3840002, ThermoFisher Scientific, Waltham, MA), 1% Penicillin/Streptomycin/L-Glutamine (catalog #10378016, ThermoFisher Scientific, Waltham, MA), and 0.05 mM 2-mercaptoethanol (catalog #21985-023, ThermoFisher Scientific, Waltham, MA). […]
For cell proliferation assay appropriate number of cells (Forty thousand cells for H929. Twenty thousand cells for RPMI8226 and GA-10. Eight thousand cells for DoHH-2) were seeded per well in 200 μL in respective medium were dispensed into a 96-well black clear bottom plate. […] Plates were read on a Synergy2 or equivalent reader (Biotek, Winooski VT) using an excitation of 540 nm and an emission of 600 nm. At the end of the incubation of DoHH-2, cell viability was determined using CellTiter-Glo® assay (Promega, Madison, WI). Luminescence was measured using EnVision MultiLabel Reader (PerkinElmer, Waltham, MA). Data was analyzed using GraphPad Prism software (GraphPad, San Diego, CA) to calculate IC50 values.

[2] = tested on: ATF4 target genes in H929 multiple myeloma cells; assay: H929 UPR/ISR target genes quantitative RT-PCR
Experimental: H929 multiple myeloma cells (catalog #CRL-9068) multiple myeloma cells were obtained from the American Type Culture Collection (ATTC, Manassas, VA). Cells were grown in RPMI-1640 medium supplemented with 20% heat-inactivated fetal bovine serum (catalog #A3840002, ThermoFisher Scientific, Waltham, MA), 1% Penicillin/Streptomycin/L-Glutamine (catalog #10378016, ThermoFisher Scientific, Waltham, MA), and 0.05 mM 2-mercaptoethanol (catalog #21985-023, ThermoFisher Scientific, Waltham, MA) at 37° C., 5% CO2, and 95% humidity. Cells were expanded until reaching 70-95% confluency at which point they were subcultured or harvested for assay use. Cells were seeded in 6-well culture plate at 3.0×10^6 cells per well in 2 mL complete growth medium and incubated with indicated concentrations of Compound 2 at 37° C., 5% CO2, and 95% humidity for 4 h. At the end of the incubation, cells were washed with PBS (Sigma) and RNA was extracted using RNeasy® Plus Kits (Qiagen, Germantown, MD). cDNA was synthesized using the High-Capacity cDNA Reverse Transcription Kit (Applied Biosciences, Beverly Hills, CA), and quantitative PCR was performed on a QuantStudio 3 (Applied Biosciences) using TaqMan Assays (Table 1, Thermo) and TaqMan Fast Advanced Master Mix (Thermo) according to manufacturer's specifications.

[3] = tested on: H358 spheroids; assay: Spheroid Western blot assay, H358
Experimental: NSCLC cell lines H358 (catalog #CRL-5807) and H2030 (catalog #CRL-5914), and fibrosarcoma cell line HT-1080 (catalog […]) were obtained from the American Type Culture Collect (ATTC, Manassas, VA). Cells were grown in RPMI-1640 medium supplemented with 10% heat-inactivated fetal bovine serum and 1% Penicillin/Streptomycin/L-Glutamine (Invitrogen, Carlsbad, CA) at 37° C., 5% CO2, and 95% humidity and maintained at 50-80% confluency until use. Cells were plated at 500,000 cells/well in 24-well Elplasia plates (Corning, Glendale, AZ) with complete growth media at 1 mL/well and incubated overnight at 37° C., 5% CO2, and 95% humidity to form spheroids. The next day, serial dilutions of test compounds were prepared in complete growth media and 500 μL existing media was removed from each well and replaced with fresh media containing compound titers. Spheroids were then incubated with test compounds for 4 hours or 24 hours under the same conditions. […] Western blots were performed to quantify phospho-GCN2 (R&D Systems, Minneapolis, MN), ATF4, CHOP, cleaved PARP, cleaved Caspase 3 and 7, and beta-Actin (Cell Signaling Technology, Danvers, MA). […]

Q: What does the source list for `Cn1cc(-c2cccc(NS(=O)(=O)c3cc(Cl)cc(CO)c3Cl)c2F)c2c(N)ncnc21` [Example 2, N-(3-(4-amino-7-methyl-7H-pyrrolo[2,3-d]pyrimidin-5-yl)-2-fluorophenyl)-2,5-dichloro-3-(hydroxymethyl)benzenesulfonamide]?
A: pIC50 [1]: 8.22; maximum stimulation for ATF4 (gene expression) ([2]; 4 h, fold change over DMSO): ~3 folds; maximum stimulation for CHOP (gene expression) ([2]; 4 h, fold change over DMSO): ~10 folds; maximum stimulation for GADD34 (gene expression) ([2]; 4 h, fold change over DMSO): ~3 folds; maximum stimulation for GPT2 (gene expression) ([2]; 4 h, fold change over DMSO): ~3; maximum stimulation for VEGFA (gene expression) ([2]; 4 h, fold change over DMSO): ~2 folds; concentrations at which ATF4 target gene expression reverted to basal levels ([2]; FIG. 4, inhibitory phase): ≥ 370 nM; upregulation of ATF4 (Western blot quantification) [3]: ≤ 12 fold
